Entries after “also recorded” stand apart in the source; their conditions may differ. Non-standard residues stand in square brackets, D forms with d. Residues, ends and D or L forms follow the SMILES beside them.

One experiment has as its target human ghrelin receptor (Homo sapiens, UniProt Q92847). Briefly: Inverse agonism on basal, constitutive signalling measured by inositol phosphate turnover in transiently transfected COS-7 cells. The conditions noted are these: wild-type ghrelin receptor; for IC50: IP turnover. It is filed as cell-based. As for the experimental part:
Cells were transfected with Lipofectamine 2000 (Life Technologies).
(§1) Cells were washed twice in buffer, 20 mM HEPES, pH 7.4, supplemented with 140 mM NaCl, 5 mM KCl, 1 mM MgSO4, 1 mM CaCl2, 10 mM glucose, 0.05% (w/v) bovine serum; and were incubated in 0.5 ml buffer supplemented with 10 mM LiCl at 37 °C. for 30 min. […] Determinations were made in duplicates.

The target of experiment [1] is metal-ion site engineered ghrelin receptor (V:01 and V:05 substituted with His) (Homo sapiens, UniProt Q92847, L209H/M213H). Kind of experiment: Inverse agonism on basal inositol phosphate turnover in the metal-ion site engineered receptor. It is filed as cell-based. As for the experimental part: as §1
metal-ion site engineered ghrelin receptor (V:01 and V:05 substituted with His), sequence (Q92847 whole entry L209H/M213H): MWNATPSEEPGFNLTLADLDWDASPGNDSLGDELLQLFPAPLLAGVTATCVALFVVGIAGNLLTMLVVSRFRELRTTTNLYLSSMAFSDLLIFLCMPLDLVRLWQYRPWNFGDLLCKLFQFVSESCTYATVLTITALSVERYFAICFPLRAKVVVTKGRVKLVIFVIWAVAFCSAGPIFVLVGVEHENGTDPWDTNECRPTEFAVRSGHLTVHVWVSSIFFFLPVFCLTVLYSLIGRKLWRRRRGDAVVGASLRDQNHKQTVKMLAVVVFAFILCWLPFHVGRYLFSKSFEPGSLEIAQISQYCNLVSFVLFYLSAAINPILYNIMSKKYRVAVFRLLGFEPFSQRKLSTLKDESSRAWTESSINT
Metal-ion site engineering has previously been used as a molecular probe for both antagonism, agonism and inverse agonism (Elling et al., 1995; Elling et al., 1999; Rosenkilde et al., 1999). Here we built a metal-ion binding site into the ghrelin receptor by substituting residues V:01 and V:05 with His residues. 125 l-ghrelin bound with normal high affinity to the metal-ion site engineered receptor and ghrelin could stimulate IP turnover with a potency and efficacy as in the wild-type receptor (data not shown). […] A similar result has been obtained in the HHV8 encoded constitutively active ORF-74 receptor (Rosenkilde et al., 1999). […] This is important for the invention since the invention is aimed at small molecule, preferentially non-peptide compounds which will serve as inverse agonists against the receptor and most of these will conceivably as the majority of small molecule drugs in general in 7TM G protein coupled receptor bind in between the extracellular ends of the transmembrane segments.

The next experiment relates to bombesin receptor 1. The conditions noted are these: according to the literature; cited from earlier work.
The subject of experiment [2] is lean mice, mice with diet induced obesity, ob/ob obese mice. The conditions noted are these: cited from earlier work.
The target of another experiment is NK1 receptor (Homo sapiens, UniProt P25103). Kind of experiment: Block of SP induced accumulation of IP in COS-7 cells transiently transfected with the NK1 receptor. It is filed as cell-based. The settings on record: data not shown.
NK1 receptor, sequence (P25103 whole entry, species assumed): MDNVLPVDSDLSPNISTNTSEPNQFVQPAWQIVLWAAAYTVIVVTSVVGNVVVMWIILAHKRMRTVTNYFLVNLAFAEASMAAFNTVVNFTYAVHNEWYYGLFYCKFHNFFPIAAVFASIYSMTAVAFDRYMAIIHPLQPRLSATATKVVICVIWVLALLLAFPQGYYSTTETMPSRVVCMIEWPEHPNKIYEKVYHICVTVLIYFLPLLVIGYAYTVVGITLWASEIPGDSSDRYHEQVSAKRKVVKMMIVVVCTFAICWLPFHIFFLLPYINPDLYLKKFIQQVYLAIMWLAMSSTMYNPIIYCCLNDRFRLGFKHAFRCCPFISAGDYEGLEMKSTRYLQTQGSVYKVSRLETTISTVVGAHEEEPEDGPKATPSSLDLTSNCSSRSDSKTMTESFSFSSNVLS

human ghrelin receptor, sequence (Q92847 whole entry): as the sequence (Q92847 whole entry L209H/M213H) above, with H209L, H213M counted along it

On to `O=C(O)CCc1ccc(-c2ccc(Br)cc2)n1-c1cccc(C(F)(F)F)c1` [TM27810, 3-[5-(4-Bromo-phenyl)-1-(3-trifluoromethyl-phenyl)-1H-pyrrol-2-yl]-propionic acid], for which half-maximal inhibition on human ghrelin receptor (IC50) was put at 6.5 µM. Moreover, the “efficacy as inverse agonist (in words)” value at human ghrelin receptor (absence of ghrelin) was “high efficacy inverse agonist; also recorded: efficiently decreases the constitutive signalling activity”.

As for `[Zn+2]` [Zn(II)], the 50% inhibitory concentration (IC50) in experiment [1] (metal ion site engineered receptor, IP turnover, read-out: IC50 for inverse agonism on basal, constitutive signalling) was 4.3 ± 0.2 µM; against human ghrelin receptor, 160 ± 70 µM. Moreover, the “efficacy as inverse agonist (in words)” value in experiment [1] (metal-ion site engineered receptor) is on record as “full inverse agonist”.

Consider `CC(C)C[C@H](NC(=O)[C@H](CC(C)C)NC(=O)[C@@H](Cc1c[nH]c2ccccc12)NC(=O)[C@H](Cc1ccccc1)NC(=O)[C@@H](Cc1c[nH]c2ccccc12)NC(=O)[C@H](CCC(N)=O)NC(=O)[C@@H](Cc1ccccc1)NC(=O)[C@@H]1CCCN1C(=O)[C@H](CCCCN)NC(=O)[C@@H]1CCCN1C(=O)[C@H](N)CCCNC(=N)N)C(N)=O` [[D-Arg^1, D-Phe^5, D-Trp^7,9, Leu^11]-Substance P] (H-[dR]PKP[dF]Q[dW]F[dW]LL-NH2; N-terminus and C-terminus assumed), for which the “antagonist potency on the bombesin receptor (in words)” value in the experiment on bombesin receptor 1 is “micromolar antagonist”. In experiment [2] (lean mice, diet induced obesity mice, ob/ob obese mice, repeated administrations for six days), the “energy intake / food intake” value was “decreased”. Besides, in experiment [2] (mice), the “rate of gastric emptying” value is on record as “reduced”. In experiment [2] (repeated administrations, obese ob/ob mice (normal and obese mice)), the body weight gain entry is recorded as “decreased”. The glycaemic control result in experiment [2] (repeated administrations, obese ob/ob mice) was “improved”. Besides, the “antagonist potency on the NK1 receptor (in words)” value at NK1 receptor is recorded as “micromolar antagonist; also recorded: at micromolar concentrations also has effects”.

By IC50 is commonly meant the concentration needed to halve the response being measured.

(Values after patent US20060025344A1, “Ghrelin receptor inverse agonists for regulation of feeding behaviors” (7TM Pharma A/S, priority 2002, published 2006).)
